Legend:
[1] = system: HepG2; assay: In vitro cytotoxic concentration required to inhibit hepatitisB virus (HBV) replication in 2.2.15 cell line; assay type: functional; conditions: Homo sapiens
[2] = system: Human gammaherpesvirus 4; assay: In vitro effective concentration required to inhibit Epstein-Barr virus (EBV) replication in H-1 cell line; assay type: functional, organism-based; conditions: human gammaherpesvirus 4, H-1
[3] = system: Human alphaherpesvirus 3; assay: In vitro effective concentration required to inhibit varicella zoster virus (VZV) replication in HFF cell line; assay type: functional, organism-based; conditions: Human alphaherpesvirus 3, HFF
[4] = system: Human betaherpesvirus 5; assay: In vitro effective concentration required to inhibit AD169 strain of human cytomegalovirus (HCMV) replication in HFF cell line; assay type: functional, organism-based; conditions: Human betaherpesvirus 5, HFF
[5] = system: Human betaherpesvirus 5; assay: In vitro cytotoxic concentration required to inhibit towne strain of human cytomegalovirus (HCMV) replication in HFF cell line; assay type: functional; conditions: Human betaherpesvirus 5, HFF
[6] = system: Human betaherpesvirus 5; assay: In vitro effective concentration required to inhibit towne strain of human cytomegalovirus (HCMV) replication in HFF cell line; assay type: functional, organism-based; conditions: Human betaherpesvirus 5, HFF
[7] = system: Human gammaherpesvirus 4; assay: In vitro cytotoxic concentration required to inhibit Epstein-Barr virus (EBV) replication in Daudi cells; assay type: functional; conditions: human gammaherpesvirus 4, Daudi
[8] = system: Human gammaherpesvirus 4; assay: In vitro effective concentration required to inhibit Epstein-Barr virus (EBV) replication in Daudi cells; assay type: functional, organism-based; conditions: human gammaherpesvirus 4, Daudi
[9] = system: HFF; assay: In vitro cytotoxic concentration required to inhibit AD169 strain of human cytomegalovirus (HCMV) replication in HFF cell line; assay type: functional
[10] = system: Hepatitis B virus; assay: In vitro effective concentration required to inhibit hepatitisB virus (HBV) replication in 2.2.15 cell line; assay type: functional, organism-based
[11] = system: HFF; assay: In vitro effective concentration required to inhibit varicella zoster virus (VZV) replication in HFF cell line by plaque reduction assay; assay type: functional, cell-based; conditions: Homo sapiens
[12] = system: Murid betaherpesvirus 1; assay: In vitro cytotoxic concentration required to inhibit murine cytomegalovirus (MCMV) replication in MEF cell line; assay type: functional
[13] = system: MEF; assay: In vitro effective concentration required to inhibit murine cytomegalovirus (MCMV) replication in MEF cell line; assay type: functional, cell-based; conditions: Mus musculus

| SMILES | CC50 [1] [µM] | EC50 [2] [µM] | EC50 [3] [µM] | EC50 [4] [µM] | CC50 [5] [µM] | EC50 [6] [µM] | CC50 [7] [µM] | EC50 [8] [µM] | CC50 [9] [µM] | EC50 [10] [µM] | EC50 [11] [µM] | CC50 [12] | EC50 [13] [µM] | CC50 ([12]; Murid betaherpesvirus 1, MEF) [µM] |
| --- | --- | --- | --- | --- | --- | --- | --- | --- | --- | --- | --- | --- | --- | --- |
| Nc1nc(NC2CC2)c2ncn(/C=C3\CC3(CO)CO)c2n1 | > 100 | > 20 | > 331 | 327 | > 100 | > 100 | > 165 | 0.3 | > 331 | > 20 | – | – | – | – |
| Cc1cn(/C=C2\CC2(CO)CO)c(=O)[nH]c1=O | > 50 | > 20 | > 420 | > 420 | > 100 | > 100 | > 210 | 178 | > 420 | > 10 | – | – | – | – |
| Nc1ncnc2c1ncn2/C=C1\CC1(CO)CO | > 50 | > 20 | 11.7 | > 404 | > 100 | > 100 | > 202 | 132 | > 404 | > 10 | 44.9 | – | – | – |
| COc1nc(N)nc2c1ncn2C=C1CC1(CO)CO [listing 1 of 3 here] | – | – | – | – | – | – | – | – | – | – | – | Not toxic | – | – |
| Nc1ncnc2c1ncn2/C=C1/CC1(CO)CO | > 50 | 16 | > 404 | 11.7 | 100 | 3.6 | > 202 | 166 | > 404 | > 10 | – | – | 9.7 | > 404 |
| Nc1ccn(/C=C2\CC2(CO)CO)c(=O)n1 | > 50 | > 20 | > 448 | > 448 | > 100 | > 100 | > 224 | 152 | > 448 | > 10 | – | – | – | – |
| Nc1nc(Cl)c2ncn(C=C3CC3(CO)CO)c2n1 [listing 1 of 2 here] | 23.6 | 16.4 | > 71 | > 355 | > 100 | > 100 | > 178 | > 178 | > 355 | > 20 | – | – | – | – |
| Nc1nc(N)c2ncn(C=C3CC3(CO)CO)c2n1 [listing 1 of 3 here] | – | – | – | – | – | – | – | – | – | – | – | Not toxic | – | – |
| Nc1nc2c(ncn2/C=C2\CC2(CO)CO)c(=O)[nH]1 | > 50 | > 20 | > 357 | 120 | > 100 | 39 | > 190 | 119 | > 380 | > 20 | – | – | 42 | > 380 |
| Nc1ccn(/C=C2/CC2(CO)CO)c(=O)n1 | > 50 | > 20 | > 448 | 14.3 | > 100 | 32 | 70 | > 45 | > 448 | > 10 | – | – | 54 | > 448 |
| Nc1nc(N)c2ncn(C=C3CC3(CO)CO)c2n1 [listing 2 of 3 here] | 48 | > 20 | 8.4 | > 381 | > 100 | 15 | > 191 | > 191 | > 381 | 4 | 38.9 | – | – | – |
| Nc1nc(F)c2ncn(C=C3CC3(CO)CO)c2n1 [listing 1 of 2 here] | 56.4 | 20.8 | 41.8 | 22.2 | > 100 | 38 | > 189 | > 189 | > 377 | > 20 | 50.1 | – | 18.9 | 176 |
| Nc1nc2c(ncn2/C=C2/CC2(CO)CO)c(=O)[nH]1 [FILOCICLOVIR] | > 50 | 7 | > 380 | 0.49 | > 100 | 0.46 | 74 | 45 | > 380 | > 10 | – | – | 0.27 | > 380 |
| Nc1nc(N)c2ncn(C=C3CC3(CO)CO)c2n1 [listing 3 of 3 here] | > 100 | > 20 | 270 | 313 | > 100 | > 100 | 191 | < 0.31 | > 381 | > 20 | – | – | – | – |
| COc1nc(N)nc2c1ncn2C=C1CC1(CO)CO [listing 2 of 3 here] | > 100 | > 20 | 322 | > 361 | > 100 | > 100 | > 180 | > 180 | > 361 | > 20 | – | – | – | – |
| Nc1nc2c(ncn2COC(CO)CO)c(=O)[nH]1 [GANCICLOVIR] | – | – | – | 2.3 | > 100 | 4.1 | – | – | > 392 | – | – | – | 5 | > 35 |
| COc1nc(N)nc2c1ncn2C=C1CC1(CO)CO [listing 3 of 3 here] | 90 | 4.8 | 11.2 | 2.7 | > 100 | 3.5 | > 180 | 161 | > 361 | > 20 | 3.3 | – | 2 | > 361 |
| Nc1nc(Cl)c2ncn(C=C3CC3(CO)CO)c2n1 [listing 2 of 2 here] | 11.6 | 16.4 | > 71 | > 355 | > 100 | > 100 | > 178 | 142 | > 301 | > 20 | – | – | – | – |
| Nc1nc(F)c2ncn(C=C3CC3(CO)CO)c2n1 [listing 2 of 2 here] | > 100 | 18.5 | 31.7 | 43.7 | > 100 | 33 | > 189 | > 189 | > 337 | 0.02 | 180 | – | 18.9 | 176 |
| Cc1cn(/C=C2/CC2(CO)CO)c(=O)[nH]c1=O | > 50 | 19 | > 420 | > 420 | > 100 | > 100 | > 210 | 4.6 | > 420 | > 10 | – | – | – | – |
| Nc1nc(NC2CC2)c2ncn(/C=C3/CC3(CO)CO)c2n1 | > 100 | > 20 | > 66 | 255 | > 100 | > 100 | > 165 | > 165 | > 331 | > 20 | – | – | – | – |
